Activity calls are given as the source filed them. No cut-off for these calls is given here.
How the values were obtained:
[1] = Oral bioavailability in female Rhesus monkey at 70 mg/kg measured for 36 hrs by LC-tandem MS analysis; assay type: ADME, organism-based, Macaca mulatta; settings: in vivo
Syrian golden hamster [2] = assay: Lipid lowering effect on high-fat diet-fed golden hamster assessed as decrease in TC level in liver at 100 to 200 mg/kg, po qd administered via gavage measured after 4 weeks; assay type: functional, organism-based; settings: Mesocricetus auratus, dose 100-200 mg/kg
Mus musculus [3] = assay: Effect on Gadd45b mRNA level in liver of diet-induced obese C57BL/6 mouse model harboring AMPKalpha LS-/- at 200 mg/kg, po for 4 weeks by GO analysis; assay type: functional, organism-based
Mus musculus [4] = assay: Effect on Hspa5 mRNA level in liver of diet-induced obese C57BL/6 mouse model harboring AMPKalpha LS-/- at 200 mg/kg, po for 4 weeks by GO analysis; assay type: functional, organism-based
Mus musculus [5] = assay: Effect on Ptafr mRNA level in liver of diet-induced obese C57BL/6 mouse model harboring AMPKalpha LS-/- at 200 mg/kg, po for 4 weeks by GO analysis; assay type: functional, organism-based
Mus musculus [6] = assay: Effect on Dnajb9 mRNA level in liver of diet-induced obese C57BL/6 mouse model harboring AMPKalpha LS-/- at 200 mg/kg, po for 4 weeks by GO analysis; assay type: functional, organism-based
Syrian golden hamster [7] = assay: Lipid lowering effect on high-fat diet-fed golden hamster assessed as decrease in ALT level in liver at 50 to 200 mg/kg, po qd administered via gavage measured after 4 weeks; assay type: functional, organism-based; settings: Mesocricetus auratus, dose 50-200 mg/kg
Mus musculus [8] = assay: Downregulation of Ccr2 mRNA level in liver of high-fat diet-fed C57BL/6 mouse model at 200 mg/kg, po for 4 weeks by GO analysis; assay type: functional, organism-based
Syrian golden hamster [9] = assay: Lipid lowering effect on high-fat diet-fed golden hamster assessed as decrease in serum TC level at 6 mg/kg, po qd administered via gavage measured after 4 weeks relative to control; assay type: functional, Mesocricetus auratus; set-up: scale not given: the % may be the effect or the level left
Syrian golden hamster [10] = assay: Lipid lowering effect on high-fat diet-fed golden hamster assessed as decrease in serum LDL-C level at 6 mg/kg, po qd administered via gavage measured after 4 weeks relative to control; assay type: functional, Mesocricetus auratus; set-up: scale not given: the % may be the effect or the level left
Mus musculus [11] = assay: Downregulation of Mogat1 mRNA level in liver of high-fat diet-fed C57BL/6 mouse model at 200 mg/kg, po for 4 weeks by GO analysis; assay type: functional, organism-based
Mus musculus [12] = assay: Downregulation of Aacas mRNA level in liver of high-fat diet-fed C57BL/6 mouse model at 200 mg/kg, po for 4 weeks by GO analysis; assay type: functional, organism-based
[13] = Cmax in male Rhesus monkey at 70 mg/kg, po or 7 mg/kg, iv measured for 36 hrs by LC-tandem MS analysis; assay type: ADME, organism-based, Macaca mulatta; settings: in vivo
Rhesus monkey = assay: Lipid lowering effect in Rhesus monkey assessed as decrease in serum LDL-C level at 35 mg/kg, NG qd measured after 21 days relative to control; assay type: functional, Macaca mulatta; set-up: scale not given: the % may be the effect or the level left; settings: time 21 day
Mus musculus [14] = assay: Effect on Ccl2 mRNA level in liver of diet-induced obese C57BL/6 mouse model harboring AMPKalpha LS-/- at 200 mg/kg, po for 4 weeks by GO analysis; assay type: functional, organism-based
[15] = Half life in female Rhesus monkey at 70 mg/kg, po or 7 mg/kg, iv measured for 36 hrs by LC-tandem MS analysis; assay type: ADME, organism-based, Macaca mulatta; settings: in vivo
Mus musculus [16] = assay: Effect on Syvn1 mRNA level in liver of diet-induced obese C57BL/6 mouse model harboring AMPKalpha LS-/- at 200 mg/kg, po for 4 weeks by GO analysis; assay type: functional, organism-based
Erythrocyte = assay: In vivo induction of AMPK phosphorylation in erythrocytes of human at 2000 mg measured after 5 to 12 hrs by ELISA; assay type: functional, organism-based; settings: time 5-12 hrs
[17] = Efflux ratio of apparent permeability across basal to apical side over apical to basal side in human Caco-2 cells at 2 uM incubated for 2 hrs by LC-MS/MS analysis; assay type: ADME, cell-based
Mus musculus [18] = assay: Upregulation of Lepr mRNA level in liver of high-fat diet-fed C57BL/6 mouse model at 200 mg/kg, po for 4 weeks by GO analysis; assay type: functional, organism-based
Mus musculus [19] = assay: Downregulation of Ptafr mRNA level in liver of high-fat diet-fed C57BL/6 mouse model at 200 mg/kg, po for 4 weeks by GO analysis; assay type: functional, organism-based
Mus musculus [20] = assay: Lipid lowering effect on high-fat diet-fed Kunming mouse assessed as serum total cholesterol level at 50 mg/kg, po qd via gavage for 7 days consecutively (reference value: 159.3 +/- 11.5 mg/dl); assay type: functional; settings: time 7 day
Syrian golden hamster [21] = assay: Lipid lowering effect on high-fat diet-fed golden hamster assessed as decrease in serum TG level at 6 mg/kg, po qd administered via gavage measured after 4 weeks relative to control; assay type: functional, Mesocricetus auratus; set-up: scale not given: the % may be the effect or the level left
Mus musculus [22] = assay: Lipid lowering effect on high-fat diet-fed C57BL/6J mouse assessed as decrease in serum LDL-C level at 40 mg/kg/day, po administered via gavage measured after 7 days relative to control; assay type: functional; set-up: scale not given: the % may be the effect or the level left; settings: time 7 day
Mus musculus [23] = assay: Downregulation of Hspa5 mRNA level in liver of high-fat diet-fed C57BL/6 mouse model at 200 mg/kg, po for 4 weeks by GO analysis; assay type: functional, organism-based
[24] = AUC (0 to t) in male Rhesus monkey at 70 mg/kg, po or 7 mg/kg, iv measured for 36 hrs by LC-tandem MS analysis; assay type: ADME, organism-based, Macaca mulatta; settings: in vivo
Mus musculus [25] = assay: Effect on Gadd45a mRNA level in liver of diet-induced obese C57BL/6 mouse model harboring AMPKalpha LS-/- at 200 mg/kg, po for 4 weeks by GO analysis; assay type: functional, organism-based
[26] = molecular target: T1, AMP-activated protein kinase (AMPK) alpha-1/beta-1/gamma-1 (Homo sapiens) (UniProt P54619+Q9Y478+Q13131); assay: Activation of AMPK alpha1/AMPKbeta1/AMPKgamma1 (unknown origin) using SAMS peptide as substrate assessed as relative enzyme activity at 10 uM incubated for 20 mins in presence of [gamma-32P]ATP by scintillation counter analysis; assay type: protein-complex assay; settings: filed as activator
[27] = molecular target: T1, AMP-activated protein kinase (AMPK) alpha-1/beta-1/gamma-1 (Homo sapiens); assay: Activation of AMPK alpha1/AMPKbeta1/AMPKgamma1 (unknown origin) using SAMS peptide as substrate at; assay type: protein-complex assay; settings: filed as activator, dose < 70.3 µM, time 20.0 min
[28] = Oral bioavailability in male Rhesus monkey at 70 mg/kg measured for 36 hrs by LC-tandem MS analysis; assay type: ADME, organism-based, Macaca mulatta; settings: in vivo
[29] = Half life in male Rhesus monkey at 70 mg/kg, po or 7 mg/kg, iv measured for 36 hrs by LC-tandem MS analysis; assay type: ADME, organism-based, Macaca mulatta; settings: in vivo
[30] = Stability in human Caco-2 cells assessed as compound remaining at 10 ug/ml measured after 3 hrs by LC-MS/MS analysis; assay type: ADME, cell-based; settings: at 10 µg/mL, read-out: Stability
[31] = Stability in human liver microsomes assessed as drug metabolism at 1 uM measured after 5 mins in presence of NADPH by LC-MS/MS analysis; assay type: ADME, Microsome; settings: read-out: Drug metabolism
Syrian golden hamster [32] = assay: Lipid lowering effect on high-fat diet-fed golden hamster assessed as decrease in serum TG level administered orally once daily via gavage measured after 4 weeks measured after 4 weeks; assay type: functional, organism-based; settings: Mesocricetus auratus, dose 50-200 mg/kg, route po
[33] = Efflux ratio of apparent permeability across basal to apical side over apical to basal side in human Caco-2 cells at 21 uM incubated for 2 hrs by LC-MS/MS analysis; assay type: ADME, cell-based

T1 sequence (P54619 whole entry): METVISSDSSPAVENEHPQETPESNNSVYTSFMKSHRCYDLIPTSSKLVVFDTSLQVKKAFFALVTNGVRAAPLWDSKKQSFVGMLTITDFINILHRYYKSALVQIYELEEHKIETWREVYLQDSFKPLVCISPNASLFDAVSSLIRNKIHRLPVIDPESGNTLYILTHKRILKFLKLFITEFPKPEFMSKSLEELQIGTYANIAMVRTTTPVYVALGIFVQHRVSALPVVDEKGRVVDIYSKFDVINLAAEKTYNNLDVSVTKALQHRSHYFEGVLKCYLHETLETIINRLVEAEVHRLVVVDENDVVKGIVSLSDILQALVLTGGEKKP
T1 sequence (Q13131 whole entry partner): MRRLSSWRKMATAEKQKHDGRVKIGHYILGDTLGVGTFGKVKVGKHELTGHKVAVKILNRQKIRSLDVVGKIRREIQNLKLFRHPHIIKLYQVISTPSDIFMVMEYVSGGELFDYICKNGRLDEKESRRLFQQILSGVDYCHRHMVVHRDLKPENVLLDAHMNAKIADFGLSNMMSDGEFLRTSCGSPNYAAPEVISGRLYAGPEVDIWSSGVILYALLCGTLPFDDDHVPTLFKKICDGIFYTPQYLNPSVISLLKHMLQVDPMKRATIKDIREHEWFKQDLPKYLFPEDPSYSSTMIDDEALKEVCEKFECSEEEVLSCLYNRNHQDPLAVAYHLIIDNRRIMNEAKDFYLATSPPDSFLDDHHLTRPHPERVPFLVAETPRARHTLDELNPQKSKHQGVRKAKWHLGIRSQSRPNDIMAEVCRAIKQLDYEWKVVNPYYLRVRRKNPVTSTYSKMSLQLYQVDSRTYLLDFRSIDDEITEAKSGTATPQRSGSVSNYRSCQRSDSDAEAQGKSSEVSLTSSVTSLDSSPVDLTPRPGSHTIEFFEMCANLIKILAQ
T1 sequence (Q9Y478 2-270 partner limits assumed): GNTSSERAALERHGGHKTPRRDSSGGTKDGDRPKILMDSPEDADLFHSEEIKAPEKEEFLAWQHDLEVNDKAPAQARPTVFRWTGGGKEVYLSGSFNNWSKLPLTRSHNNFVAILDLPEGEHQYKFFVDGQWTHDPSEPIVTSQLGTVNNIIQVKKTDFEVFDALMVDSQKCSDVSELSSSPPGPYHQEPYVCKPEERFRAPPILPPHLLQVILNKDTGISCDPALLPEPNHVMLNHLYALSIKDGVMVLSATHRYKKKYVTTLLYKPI

CC(=O)OC[C@H]1O[C@@H](n2cnc3c(Nc4cccc(O)c4)ncnc32)[C@H](OC(C)=O)[C@@H]1OC(C)=O
bioavailability [1]: 3.75% | Activity (Syrian golden hamster [2]): Active | Activity (Mus musculus [3]): inactive | Activity (Mus musculus [4]): inactive | Activity (Mus musculus [5]): inactive | Activity (Mus musculus [6]): inactive | Activity (Syrian golden hamster [7]): Active | Activity (Mus musculus [8]): Active | Activity (Syrian golden hamster [9]): 24.8% | Activity (Syrian golden hamster [10]): 27.5% | Activity (Mus musculus [11]): Active | Activity (Mus musculus [12]): Active | Cmax [13]: 20.4 ng/mL | Activity (Rhesus monkey): 23.69% | Activity (Mus musculus [14]): inactive | half-life [15]: 4.15 h | Activity (Mus musculus [16]): inactive | Activity (Erythrocyte): Active | efflux ratio at 2 h, 2 µM [17]: 2.1 | Activity (Mus musculus [18]): Active | Activity (Mus musculus [19]): Active | Activity (Mus musculus [20]): 151.7 mg/dL | Activity (Syrian golden hamster [21]): 52.8% | Activity (Mus musculus [22]): 32.6% | Activity (Mus musculus [23]): Active | AUC(0-t) at 36 h [24]: 109 ng·h/mL | Activity (Mus musculus [25]): inactive | Activity [26]: 2.31 | Activity [27]: Active | bioavailability [28]: 3.04% | half-life [29]: 5.4 h | remaining at 3 h, 10 ug/ml [30]: 52% | metabolised at 5 min, 1 µM [31]: > 80% | Activity (Syrian golden hamster [32]): Dose-Dependent Effect | efflux ratio at 2 h, 21 µM [33]: 1.9
